The target of assay [1] is isolated recombinant JAK2 kinase domain (Homo sapiens (Human), UniProt O60674). The assay is described as follows: JAK2 enzyme assay (Caliper LabChip, Ki). As to conditions: isolated recombinant JAK2 kinase domain, 0.2 nM enzyme, ATP 25 μM. The class given is biochemical.
The target of assay [2] is isolated recombinant JAK1 kinase domain (Homo sapiens (Human), UniProt P23458). Put plainly: JAK1 enzyme assay (Caliper LabChip, Ki). The class given is biochemical. As to conditions: isolated recombinant JAK1 kinase domain, 1.5 nM enzyme, ATP 25 μM.
Chain of isolated recombinant JAK1 kinase domain (P23458 875-1153): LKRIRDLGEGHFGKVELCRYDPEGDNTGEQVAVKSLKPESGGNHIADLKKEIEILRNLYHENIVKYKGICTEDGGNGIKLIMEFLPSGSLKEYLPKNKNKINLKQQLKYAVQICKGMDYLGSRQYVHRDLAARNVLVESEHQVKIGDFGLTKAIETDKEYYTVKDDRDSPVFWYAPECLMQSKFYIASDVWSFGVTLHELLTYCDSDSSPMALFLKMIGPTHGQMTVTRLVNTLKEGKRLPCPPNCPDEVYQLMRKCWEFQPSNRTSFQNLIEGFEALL

Chain of isolated recombinant JAK2 kinase domain (O60674 849-1124): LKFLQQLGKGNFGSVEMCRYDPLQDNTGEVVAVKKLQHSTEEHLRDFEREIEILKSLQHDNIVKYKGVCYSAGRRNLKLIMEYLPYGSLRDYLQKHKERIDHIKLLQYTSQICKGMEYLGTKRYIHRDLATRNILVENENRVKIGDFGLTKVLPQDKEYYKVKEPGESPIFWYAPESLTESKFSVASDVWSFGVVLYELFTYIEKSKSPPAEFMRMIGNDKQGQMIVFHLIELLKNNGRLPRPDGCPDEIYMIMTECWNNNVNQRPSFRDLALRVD

In the case of `CN(C)C(=O)CN1CCN(CC2CCN(C(=O)Cn3cc(Nc4nc5c(N6CC7CCC(C6)N7C(=O)N6CC(C(F)(F)F)C6)cccn5n4)cn3)CC2)CC1` [Example 81, N,N-dimethyl-2-[4-[[1-[2-[4-[[8-[8-[3-(trifluoromethyl)azetidine-1-carbonyl]-3,8-diazabicyclo[3.2.1]octan-3-yl]-[1,2,4]triazolo[1,5-a]pyridin-2-yl]amino]pyrazol-1-yl]acetyl]-4-piperidyl]methyl]piperazin-1-yl]acetamide], the results for the inhibitory constant (Ki) in assay [1] and in assay [2] were 0.8 nM and 1 nM, respectively.

As to `O=C(Cn1cc(Nc2nc3c(N4CC5CCC(C4)N5C(=O)[C@H]4C[C@@H](C(F)(F)F)C4)cccn3n2)cn1)N1CCN(C2CSC2)CC1` [Example 82], the Ki (commonly a dissociation constant, usually derived from enzyme kinetics or from competition with a known ligand) in assay [1] stood at 0.3 nM; in assay [2], 0.4 nM.

On to `O=C(Cn1cc(Nc2nc3c(N4CC5CCC(C4)N5C(=O)[C@H]4C[C@H](C(F)(F)F)C4)cccn3n2)cn1)N1CCN(C2CSC2)CC1` [Example 83, 1-[4-(thietan-3-yl)piperazin-1-yl]-2-[4-[[8-[8-[3-(trifluoromethyl)cyclo-butanecarbonyl]-3,8-diazabicyclo[3.2.1]octan-3-yl]-[1,2,4]triazolo[1,5-a]pyridin-2-yl]amino]pyrazol-1-yl]ethanone], for which the Ki in assay [1] stood at 4 nM; in assay [2] it was 1.6 nM.

In the case of `CN1CCN(C(=O)Cn2cc(Nc3nc4c(N5C[C@H]6CC[C@@H](C5)[C@H]6OCc5cccnc5)cccn4n3)cn2)CC1` [Example 84, 1-(4-methylpiperazin-1-yl)-2-[4-[[8-[(1S,5R)-8-(3-pyridylmethoxy)-3-azabicyclo[3.2.1]octan-3-yl]-[1,2,4]triazolo[1,5-a]pyridin-2-yl]amino]pyrazol-1-yl]ethanone], the inhibitory constant (Ki) in assay [1] is 0.8 nM; in assay [2] it was 0.4 nM.

As to `CN1CCN(C(=O)Cn2cc(Nc3nc4c(N5CC6CCC(C5)N6Cc5ccccc5)cccn4n3)cn2)CC1` [Example 86, 2-[4-[[8-(8-benzyl-3,8-diazabicyclo[3.2.1]octan-3-yl)-[1,2,4]triazolo[1,5-a]alpyridin-2-yl]amino]pyrazol-1-yl]-1-(4-methylpiperazin-1-yl)ethanone], the values for the inhibition constant (Ki) in assay [1] and in assay [2] were 105 nM and 19.2 nM, respectively.

For the compound `CN1CCN(C(=O)Cn2cc(Nc3nc4c(N5CC6CCC(C5)N6C(=O)c5ccns5)cccn4n3)cn2)CC1` [Example 87, 2-[4-[[8-[8-(isothiazole-5-carbonyl)-3,8-diazabicyclo[3.2.1]octan-3-yl]-[1,2,4]triazolo[1,5-a]pyridin-2-yl]amino]pyrazol-1-yl]-1-(4-methylpiperazin-1-yl)ethanone], the Ki in assay [1] came to 0.9 nM; in assay [2], 0.6 nM.

In the case of `CN1CCN(C(=O)Cn2cc(Nc3nc4c(N5CC6CCC(C5)N6S(=O)(=O)c5cccc(Cl)c5)cccn4n3)cn2)CC1` [Example 88, 2-[4-[[8-[8-(3-chlorophenyl)sulfonyl-3,8-diazabicyclo[3.2.1]octan-3-yl]-[1,2,4]triazolo[1,5-a]pyridin-2-yl]amino]pyrazol-1-yl]-1 - (4-methylpiperazin-1-yl)ethanone], the inhibition constant (Ki) in assay [1] and in assay [2] was 0.3 nM throughout.

For `CN1CCN(C(=O)Cn2cc(Nc3nc4c(N5CC6CCC(C5)N6C(=O)c5ccc(Cl)cc5)cccn4n3)cn2)CC1` [Example 89], the Ki in assay [1] turned out to be 13.4 nM; in assay [2] it was 3.1 nM.

For the compound `CN1CCN(C(=O)Cn2cc(Nc3nc4c(N5CC6CCC(C5)N6C(=O)c5cccc(Cl)c5)cccn4n3)cn2)CC1` [Example 90, 2-[4-[[8-[8-(3-chlorobenzoyl)-3,8-diazabicyclo[3.2.1]octan-3-yl]-[1,2,4]triazolo[1,5-a]pyridin-2-yl]amino]pyrazol-1-yl]-1-(4-methylpiperazin-1-yl)ethanone], the figures for the Ki in assay [1] and in assay [2] were 2.3 nM and 0.8 nM, respectively.

On to `CN1CCN(C(=O)Cn2cc(Nc3nc4c(N5CC6CCC(C5)N6C(=O)CC5CC(F)(F)C5(F)F)cccn4n3)cn2)CC1` (centres unmarked) [Example 91, 1-[3-[2-[[1-[2-(4-methylpiperazin-1-yl)-2-oxo-ethyl]pyrazol-4-yl]amino]-[1,2,4]triazolo[1,5-a]alpyridin-8-yl]-3,8-diazabicyclo[3.2.1]octan-8-yl]-2(2,2,3,3-tetrafluorocyclobutyl) ethanone], for which the values for the inhibitory constant (Ki) in assay [1] and in assay [2] were 0.9 nM and 0.8 nM, respectively.

For `CN1CCN(C(=O)Cn2cc(Nc3nc4c(N5CC6CCC(C5)N6C(=O)C5CC(C#N)C5)cccn4n3)cn2)CC1` (centres unmarked) [Example 92, 3-[3-[2-[[1-[2-(4-methylpiperazin-1-yl)-2-oxo-ethyl]pyrazol-4-yl]amino]-[1,2,4]triazolo[1,5-a]pyridin-8-yl]-3,8-diazabicyclo[3.2.1]octane-8-carbonyl]cyclo-butanecarbonitrile], the Ki in assay [1] stood at 1.7 nM; in assay [2] it was 0.9 nM.

As to `CN1CCN(C(=O)Cn2cc(Nc3nc4c(N5CC6CCC(C5)N6S(=O)(=O)c5ccc(Cl)cc5)cccn4n3)cn2)CC1` [Example 93, 2-[4-[[8-[8-(4-chlorophenyl)sulfonyl-3,8-diazabicyclo[3.2.1]octan-3-yl]-[1,2,4]triazolo[1,5-a]pyridin-2-yl]amino]pyrazol-1-yl]-1-(4-methylpiperazin-1-yl)ethanone], the Ki in assay [1] stood at 0.8 nM; in assay [2], 0.3 nM.

Turning to `O=C(Cn1cc(Nc2nc3c(N4CC5CCC(C4)N5C(=O)N4CC(C(F)(F)F)C4)cccn3n2)cn1)N1CCN(C2CSC2)CC1` [Example 94, 1-[4-(thietan-3-yl)piperazin-1-yl]-2-[4-[[8-[8-[3-(trifluoromethyl)azetidine-1-carbonyl]-3,8-diazabicyclo[3.2.1]octan-3-yl]-[1,2,4]triazolo[1,5-a]pyridin-2-yl]amino]pyrazol-1-yl]ethanone], the results for the inhibitory constant (Ki) in assay [1] and in assay [2] were 0.4 nM and 0.6 nM, respectively.

Take `CN1CCN(C(=O)Cn2cc(Nc3nc4c(N5C[C@H]6CC[C@@H](C5)[C@H]6OCc5cnn(C)c5)cccn4n3)cn2)CC1` [Example 95, 1-(4-methylpiperazin-1-yl)-2-[4-[[8-[(1S,5R)-8-[(1-methylpyrazol-4-yl)methoxy]-3-azabicyclo[3.2.1]octan-3-yl]-[1,2,4]triazolo[1,5-a]pyridin-2-yl]amino]pyrazol-1-yl]ethanone]: the Ki in assay [1] amounted to 5 nM; in assay [2], 2.3 nM.

For the compound `CN1CCN(C(=O)Cn2cc(Nc3nc4c(N5CC6CCCC(C5)N6C(=O)C5CSC5)cccn4n3)cn2)CC1` [Example 96, 1-(4-methylpiperazin-1-yl)-2-[4-[[8-[9-(thietane-3-carbonyl)-3,9-diazabicyclo[3.3.1]nonan-3-yl]-[1,2,4]triazolo[1,5-a]pyridin-2-yl]amino]pyrazol-1-yl]ethanone], the Ki in assay [1] amounted to 0.5 nM; in assay [2], 0.4 nM.

Consider `CN1CCN(C(=O)Cn2cc(Nc3nc4c(N5CC6CCCC(C5)N6C(=O)CC5CC(F)(F)C5)cccn4n3)cn2)CC1` [Example 97, 2-(3,3-difluorocyclobutyl)-1-[3-[2-[[1-[2-(4-methylpiperazin-1-yl)-2-oxo-ethyl]pyrazol-4-yl]amino]-[1,2,4]triazolo[1,5-a]pyridin-8-yl]-3,9-diazabicyclo[3.3.1]nonan-9-yl]ethanone], for which the inhibition constant (Ki) in assay [1] is 0.5 nM; in assay [2] it was 0.6 nM.

As for `CN1CCN(C(=O)Cn2cc(Nc3nc4c(N5CC6CCC(C5)N6CC(F)(F)F)cccn4n3)cn2)CC1` [Example 98, 1-(4-methylpiperazin-1-yl)-2-[4-[[8-[8-(2,2,2-trifluoroethyl)-3,8-diazabicyclo[3.2.1]octan-3-yl]-[1,2,4]triazolo[1,5-a]pyridin-2-yl]amino]pyrazol-1-yl]ethanone], the values for the inhibition constant (Ki) in assay [1] and in assay [2] were 4.1 nM and 2.1 nM, respectively.

Consider `CSc1ccc(C(=O)N2C3CCC2CN(c2cccn4nc(Nc5cnn(CC(=O)N6CCN(C)CC6)c5)nc24)C3)cc1` [Example 99, 1-(4-methylpiperazin-1-yl)-2-[4-[[8-[8-(4-methylsulfanylbenzoyl)-3,8-diazabicyclo[3.2.1]octan-3-yl]-[1,2,4]triazolo[1,5-a]pyridin-2-yl]amino]pyrazol-1-yl]ethanone], for which the inhibition constant (Ki) worked out at 5.4 nM in assay [1] and 1.6 nM in assay [2].

Regarding `CSc1cccc(C(=O)N2C3CCC2CN(c2cccn4nc(Nc5cnn(CC(=O)N6CCN(C)CC6)c5)nc24)C3)c1` [Example 100, 1-(4-methylpiperazin-1-yl)-2-[4-[[8-[8-(3-methylsulfanylbenzoyl)-3,8-diazabicyclo[3.2.1]octan-3-yl]-[1,2,4]triazolo[1,5-a]pyridin-2-yl]amino]pyrazol-1-yl]ethanone], the figures for the Ki in assay [1] and in assay [2] were 4.2 nM and 1.2 nM, respectively.

Consider `CN1CCN(C(=O)Cn2cc(Nc3nc4c(N5CC6CCC(C5)N6Cc5cnc(CC(F)(F)F)s5)cccn4n3)cn2)CC1` [Example 101, 1-(4-methylpiperazin-1-yl)-2-[4-[[8-[8-[[2-(2,2,2-trifluoroethyl)thiazol-5-yl]methyl]-3,8-diazabicyclo[3.2.1]octan-3-yl]-[1,2,4]triazolo[1,5-a]pyridin-2-yl]amino]pyrazol-1-yl]ethanone], for which the Ki in assay [1] worked out at 10.3 nM; in assay [2], 2.9 nM.

Turning to `CN1CCN(C(=O)Cn2cc(Nc3nc4c(N5CC6CCC(C5)N6C(=O)CC(N)C(F)(F)F)cccn4n3)cn2)CC1` (centres unmarked) [Example 102, 3-amino-4,4,4-trifluoro-1-[3-[2-[[1-[2-(4-methylpiperazin-1-yl)-2-oxo-ethyl]pyrazol-4-yl]amino]-[1,2,4]triazolo[1,5-a]pyridin-8-yl]-3,8-diazabicyclo[3.2.1]octan-8-yl]butan-1-one], the Ki worked out at 7.9 nM in assay [1] and 3.4 nM in assay [2].

Consider `CC(C(=O)N1CCN(C)CC1)n1cc(Nc2nc3c(N4CC5CCC(C4)N5C(=O)CCC(F)(F)F)cccn3n2)cn1` (centres unmarked) [Example 103, 4,4,4-trifluoro-1-[3-[2-[[1-[1-methyl-2-(4-methylpiperazin-1-yl)-2-oxo-ethyl]pyrazol-4-yl]amino]-[1,2,4]triazolo[1,5-a]pyridin-8-yl]-3,8-diazabicyclo[3.2.1]octan-8-yl]butan-1-one], for which the Ki turned out to be 1.7 nM in assay [1] and 1.5 nM in assay [2].

The record behind these values is US10189836B2, “Therapeutic compounds, compositions and methods of use thereof” (Genentech, Inc., priority 2015, dated 2019).
